Assay results taken from ChEMBL document CHEMBL3611984, “Isolation and anticancer, anthelminthic, and antiviral (HIV) activity of acylphloroglucinols, and regioselective synthesis of empetrifranzinans from Hypericum roeperianum” (Bioorg Med Chem, 2015).
Calls of active or inactive are those of the source. The rule behind the calls is not given here.

Columns and labels:
[1] = Cytotoxicity against mock-infected human MT4 cells assessed as reduction in cell viability after 96 hrs by MTT assay; format: cell-based
[2] = system: Human immunodeficiency virus 1; test: Antiviral activity against HIV1 3B infected in human MT4 cells assessed as protection against virus-induced cytopathogenicity after 4 days by MTT assay; format: functional, organism-based; conditions: Human immunodeficiency virus 1, 3B, MT4, 96 h
Escherichia coli = test: Antibacterial activity against Escherichia coli DSM 1103; format: functional
Staphylococcus aureus = test: Antibacterial activity against Staphylococcus aureus DSM 2569; format: functional
Enterococcus faecalis = test: Antibacterial activity against Enterococcus faecalis DSM 2570; format: functional
PC-3 [3] = test: Cytotoxicity against human PC3 cells assessed as growth inhibition at 10 uM after 3 days by XTT assay relative to control; format: functional; conditions: PC-3, 72 h, read-out: GI
PC-3 [4] = test: Cytotoxicity against human PC3 cells assessed as growth inhibition at 10 nM after 3 days by XTT assay relative to control; format: functional; conditions: PC-3, 72 h, read-out: GI
HT-29 [5] = test: Cytotoxicity against human HT-29 cells assessed as growth inhibition at 10 nM after 3 days by XTT assay; format: functional, cell-based
Caenorhabditis elegans [6] = test: Antihelmintic activity against Caenorhabditis elegans Bristol N2 assessed as mortality at 100 ug/ml after 30 mins by microscopic analysis (reference value: 3 +/- 3%); format: functional
Caenorhabditis elegans [7] = test: Antihelmintic activity against Caenorhabditis elegans Bristol N2 assessed as mortality at 12.5 ug/ml after 30 mins by microscopic analysis; format: functional, organism-based
Caenorhabditis elegans [8] = test: Antihelmintic activity against Caenorhabditis elegans Bristol N2 assessed as mortality at 10 ug/ml after 30 mins by microscopic analysis (reference value: 3 +/- 3%); format: functional, organism-based
HT-29 [9] = test: Cytotoxicity against human HT-29 cells assessed as growth inhibition at 125 uM after 3 days by XTT assay relative to control; format: functional; conditions: HT-29, 72 h, read-out: GI
PC-3 [10] = test: Cytotoxicity against human PC3 cells assessed as growth inhibition at 125 uM after 3 days by XTT assay relative to control; format: functional; conditions: PC-3, 72 h, read-out: GI

| Compound | CC50 at 96 h [1] [µM] | EC50 [2] [µM] | MIC (Escherichia coli) [µg/mL] | MIC (Staphylococcus aureus) [µg/mL] | MIC (Enterococcus faecalis) [µg/mL] | inhibition of growth at 10 µM (PC-3 [3]) [%] | inhibition of growth at 0.01 µM (PC-3 [4]) [%] | growth inhibition (GI) (HT-29 [5]) | Activity (Caenorhabditis elegans [6]) [%] | Activity (Caenorhabditis elegans [7]) | Activity (Caenorhabditis elegans [8]) [%] | inhibition of growth at 125 µM (HT-29 [9]) [%] | inhibition of growth at 125 µM (PC-3 [10]) [%] |
| --- | --- | --- | --- | --- | --- | --- | --- | --- | --- | --- | --- | --- | --- |
| CC(C)=CCCC1(C)Oc2c(c(O)cc(O)c2C(=O)C(C)C)CC1O (configuration not stated) | 84 | > 84 | > 1 | > 1 | > 1 | < 20 | < 20 | inactive |  |  |  |  |  |
| CCC(C)C(=O)c1c(O)cc2c3c1OC1(C)CCC(C3C1)C(C)(C)O2 (configuration not stated) | > 100 | > 100 | > 1 | > 1 | > 1 | < 20 | < 20 | inactive |  |  |  |  |  |
| CC(C)C(=O)c1c(O)cc(O)c2c1O[C@]1(C)CC[C@@H](O)C(C)(C)[C@H]1C2 (relative stereo) | 41 | > 41 | > 1 | > 1 | > 1 | < 20 | < 20 | inactive | 0.7 | inactive |  |  |  |
| CCC(C)C(=O)c1c(O)cc2c3c1OC(C)(C)C1CCC(C)(CC31)O2 (configuration not stated) [EMPETRIFRANZINAN C] | 45 | > 45 | > 1 | > 1 | > 1 | 20 | < 20 | inactive |  |  |  |  |  |
| IVERMECTIN |  |  |  |  |  |  |  |  |  |  | 99 |  |  |
| C[C@@H]1CC[C@@]2(OC1)O[C@H]1[C@@H](O)[C@H]3[C@@H]4CC[C@H]5C[C@@H](O[C@@H]6O[C@H](CO)[C@H](O[C@@H]7O[C@H](CO)C(O)[C@H](O[C@@H]8OC[C@@H](O)[C@H](O)[C@H]8O)[C@H]7O[C@@H]7O[C@H](CO)[C@H](O)[C@H](O[C@@H]8O[C@H](CO)[C@@H](O)[C@H](O)[C@H]8O)[C@H]7O)[C@H](O)[C@H]6O)[C@H](O)C[C@]5(C)[C@H]4CC[C@]3(C)[C@H]1[C@@H]2C (some centres not stated) [DIGITONIN] |  |  |  |  |  |  |  |  |  |  |  | 100 | 100 |
| CC(C)C(=O)c1c(O)cc2c3c1OC(C)(C)C1CCC(C)(CC31)O2 (configuration not stated) | 18.7 |  |  |  |  |  |  |  |  |  |  |  |  |
| CCC(C)C(=O)c1c(O)cc(O)c(C/C=C(\C)CCC=C(C)C)c1O (configuration not stated) | 26.7 | > 26.7 | > 1 | > 1 | > 1 | 20 | < 20 | inactive | 37 | inactive |  |  |  |
| CC(C)=CCC/C(C)=C/Cc1c(O)cc(O)c(C(=O)c2ccccc2)c1O | 69 | > 69 | > 1 | > 1 | > 1 | < 20 | < 20 | inactive | 0.7 | inactive |  |  |  |
| CCC(C)C(=O)c1c(O)cc(O)c2c1O[C@](C)(CCC=C(C)C)[C@@H](O)C2 (some centres not stated) [EMPETRIKARINOL B] | 45 | > 45 | > 1 | > 1 | > 1 | < 20 | < 20 | inactive | 0.7 | inactive |  |  |  |
| c1ccc2[nH]c(-c3cscn3)nc2c1 [THIABENDAZOLE] |  |  |  |  |  |  |  |  | 19 |  |  |  |  |
| CC(C)=CCC/C(C)=C/Cc1c(O)cc(O)c(C(=O)C(C)C)c1O | > 100 | > 100 | > 1 | > 1 | > 1 | < 20 | < 20 | inactive | 0.7 | inactive |  |  |  |
| CC(C)C(=O)c1c(O)cc2c3c1OC1(C)CCC(C3C1)C(C)(C)O2 (configuration not stated) | > 100 | > 100 | > 1 | > 1 | > 1 | 20 | < 20 | inactive |  |  |  |  |  |
